“Also recorded” adds a separate entry of the source.
How the values were obtained:
KRAS and MEN1 expression = test: RNA-seq gene expression in MiaPaCa-2 cells; format: cell-based, human; design: dose or concentration left out as unconfirmed; conditions: MiaPaCa-2 cells after twenty-four hours
Description: MOLM-13 and MiaPaCa-2 cells were incubated with Compound A for twenty-four hours and were analyzed by RNA-seq on an Illumina NextSeq 550 platform. […] Cell viability was measured using CellTiterGlo. Human ex vivo PDX tissue models harboring KRAS mutations were cultured with Compound A and clinical reversible menin inhibitors for six days. Cell viability was measured using CellTiter Glo.

[1] = tested on: Zucker Diabetic Fatty (ZDF) rats; test: Glycemic control in ZDF rats, 16-day dosing plus two-week washout (Examples 102, 105); format: in vivo, rat
Description: The present examples provides the ability of Compound 10 to restore glycemic control to diabetic Zucker diabetic fatty rats (ZDF rats, genotype ZDF-Lepr^fa/Crl; Charles River). Cornicelli et al., 2005, Charles River.
Control and test compounds were stored at 4° C. and prepared weekly as needed. The vehicle for positive control pioglitazone was 0.25% carboxymethylcellulose and 1% Tween® 80 in reverse osmosis deionized water. The vehicle for Compound 10 was 10% DMSO, 10% Solutol HS 15, and 80% (10% hydroxypropyl-β-cyclodextrin in 50 mM citrate buffer at pH 3.0).
On Day −3, twenty-four ZDF rats (plus eight spare ZDF rats) were measured for body weight and non-fasting glucose. LabDiet 5008 was provided ad libitum throughout the study, except during designated procedures, as was water. In order to minimize the effects of stress on blood glucose and body, all animals including the spares received daily sham doses with phosphate buffered saline pH 7.2 (dose volume 5 mL/kg) via gavage beginning on Study Day −5 to Day −1.
Vehicle, control, and test compound were administered via oral gavage according to the following design on Days 1-16.
On Days −3, 1, 8, and 14 non-fasting blood glucose was measured. On Day 15, an oral glucose tolerance test was administered. The animals were weighed, and the animals were placed in clean cages without food. Access to water was provided throughout the procedure. The animals were fasted for five hours and a blood glucose measurement was determined. The animals were dosed via oral gavage with 2 g/kg glucose (10 mL/kg). Blood glucose was determined via tail snip. The second drop of blood from the animal was placed on a hand-held glucometer (Abbott Alpha Trak) at the following times relative to the glucose dose: zero (just prior to glucose dose), 15, 30, 60, 90, and 120 min. Following the final blood glucose measurement, food was returned to the cages. On Day 17, 4-hour fasting glucose was measured. Serum samples were used to measure insulin by ELISA. Analysis was performed in one to three days of each collections. On Day 17, terminal blood collection was obtained at about 8 mL per animal and measured for blood glucose.
ZDF rats were treated daily with Compound 10, vehicle, or pioglitazone for sixteen days and monitored for an additional two weeks post-treatment until Day 29. STZ rat models were induced through pre-treatment of animals on a high-fat diet with low doses of streptozotocin at Day −14 and Day −7 prior to starting treatment at Day Zero until Day 16. ZDF and STZ rats were monitored for fasting blood glucose levels, oral glucose tolerance test (OGTT), insulin and C-peptide levels, HOMA-IR (Homeostatic Model Assessment of Insulin Resistance), blood lipemic levels, and body weight according to the schematic for each model below. ZDF rats were analyzed for indicated readouts for fifteen days post-treatment for OGTT at Day 29, and serum insulin and C-peptide at Day 31.
ZDF Rat Model—three treatment groups 1. Vehicle; 2. Compound 10 at 175 mg/kg; and 3. Pioglitazone at 30 mg/kg; n=10 per group. Daily dosing zero to sixteen days QD→drug wash out at sixteen to twenty-nine days. Rats were monitored for the following parameters through dosing and wash out phases—body weight, fasting blood sugar, blood insulin, C-peptide, and OGTT.

[2] = tested on: human pancreatic islet beta cells; test: Beta cell proliferation in human islet microtissues (Examples 107, 110); format: cell-based
Description: Human islet microtissues were aggregated for 5 days and then released into ultra-low attachment plates. Half of the plates were maintained in standard culture medium (5.5 mM glucose), and half were cultured in high-glucose culture medium (GTX, 8 mM glucose) starting at Day 6, for the duration of the whole experiment. Starting on Day 9 (after 3 days of GTX pre-treatment for the relevant plates), dosing with compounds was initiated, using a Tecan D300e Digital Dispenser. DMSO was normalized by volume across all wells. Media were exchanged and compounds were redosed every 2-3 days throughout the experiment. Compound dosing was randomized; to avoid compound cross-contamination between wells, all medium exchanges were performed using 96-well deep well plates with pipette tip exchange.
FIG. 38 provides human pancreatic islet beta cell proliferation on Day 14 and Day 21. In FIG. 38, A is ATP content; B is proliferating beta cell fraction; and C is beta cell fraction. Upper graphs are standard media, and lower graphs are high glucose media. Data represents mean+−SEM of 1 donor with n=4-10 technical replicates. One-way ANOVA with Dunnet's posthoc test to DMSO control. * p<0.05; ** p<0.01; and *** p<0.001.
The ability of menin-MLL inhibitors to induce beta-cell (β-cell) proliferation is tested on human islet microtissue preparations (InSphero). Briefly, human islet microtissues are produced by enzymatic dissociation of the primary islet cells followed by controlled scaffold-free hanging-drop-based self-reaggregation of the islet cells (Misun et al., 2020, Adv. Biosyst. 2020, 4, 1900291). The process helps eliminate contaminating exocrine cells, while enabling homogenous and native-like distribution of endocrine cells within each islet microtissue. […]
Effects of the compound on beta cell function and proliferation were monitored following culturing of the islets in the presence or absence of compound for 1, 2 or 3 weeks. Proliferation of beta cells and is monitored via immunofluorescence staining for appropriate markers. […]

[3] = tested on: CLL samples isolated from patients; test: Ex vivo CLL patient samples, antileukemic activity; format: cell-based, human; conditions: CLL ex vivo patient samples, 1 μM exposure
[4] = 16 days treatment, listed as Compound 10

Compound: C=CC(=O)N[C@@H]1CCCN(Cc2ccnc(C(=O)Nc3ccc(-c4cc5c(N6CCOCC6)ncnc5[nH]4)cc3)c2)C1 [Compound A, N-[4-[4-(4-morpholinyl)-7H-pyrrolo[2,3-d]pyrimidin-6-yl]phenyl]-4-[[3(R)-[(1-oxo-2-propen-1-yl)amino]-1-piperidinyl]methyl]-2-pyridinecarboxamide]
- KRAS and MEN1 expression levels (KRAS and MEN1 expression): marked reduction
- blood lipemic levels [1, 4]: significantly reduces; also recorded: Significant reductions
- body weight [1, 4]: reduces body weight; also recorded: Significant reductions
- oral glucose tolerance test, glucose control ([1]; Day 29, after fourteen days of no treatment): significant glucose control
- oral glucose tolerance test, glucose control ([1]; after fifteen days of treatment): significant glucose control
- serum insulin and C-peptide levels ([1]; after two weeks of treatment, p<0.05): significantly reduced
- insulin in the non-fasting and fasting states ([1]; compared to vehicle and control): significant reduction
- 4-hour fasting insulin and glucose ([1]; no therapy for two weeks): increasing insulin and glucose lowering
- insulin resistance (HOMA-IR) ([1]; non-fasting and fasting, listed as Compound 10): significant reduction; also recorded: increases insulin sensitivity; also recorded: reduced
- glucose in the non-fasting and fasting states ([1]; oral gavage Days 1-16, compared to vehicle and control): significant reduction
- C-peptide ([1]; two weeks after therapy): increasing C-peptide
- beta-cell proliferation ([2]; glucose stress condition (8 mM glucose)): dose dependent increase
- proliferating beta cell fraction ([2]; human islet microtissues, Day 14 and Day 21, compared to control): induced human pancreatic islet beta cells substantially
- beta-cell proliferation ([2]; standard glucose conditions (5.5 mM glucose)): not under standard glucose conditions
- cell lethality [3]: > 98%
